What was measured:
[1] = molecular target: T1, Replicase polyprotein 1ab (Severe acute respiratory syndrome-related coronavirus, UniProt P0C6X7); experiment: Inhibition of ATPase activity of SARS coronavirus helicase assessed as phosphate release by malachite green assay
[2] = molecular target: T1, Replicase polyprotein 1ab; experiment: Inhibition of SARS coronavirus helicase assessed as duplex-DNA unwinding by FRET based assay

SMILES | IC50 [1] | IC50 [2]
O=c1cc(CNCc2ccc(Cl)cc2)oc2ccc(O)c(O)c12 | > 50 µM | > 50 µM
O=c1c(O)c(-c2ccc(O)c(O)c2)oc2cc(OCc3ccc(Cl)cc3)cc(O)c12 | 20.9 µM | 4.1 µM
O=c1c(O)c(-c2ccc(O)c(O)c2)oc2cc(OCc3cccc(Cl)c3)cc(O)c12 | > 50 µM | 5.2 µM
N#Cc1cccc(COc2cc(O)c3c(=O)c(O)c(-c4ccc(O)c(O)c4)oc3c2)c1 | 25.4 µM | 2.7 µM
O=c1c(O)c(-c2ccc3c(c2)OCO3)oc2cc(OCc3ccc(Cl)cc3)cc(O)c12 | > 50 µM | 9.3 µM
N#Cc1cccc(COc2cc(O)c3c(=O)c(O)c(-c4ccc5c(c4)OCO5)oc3c2)c1 | 42.9 µM | 8.1 µM
O=c1c(O)c(-c2ccc3c(c2)OCO3)oc2cc(O)cc(O)c12 | > 50 µM | > 50 µM
O=c1cc(CNCc2cccc(Cl)c2)oc2ccc(O)c(O)c12 | > 50 µM | > 50 µM
N#Cc1cccc(CNCc2cc(=O)c3c(O)c(O)ccc3o2)c1 | > 50 µM | > 50 µM
O=c1c(O)c(-c2ccc3c(c2)OCO3)oc2cc(OCc3cccc(Cl)c3)cc(O)c12 | > 50 µM | 15.4 µM
